Experiments:
Type in all cases: cell-based
[1] = tested on: Candida albicans; assay: Zone inhibition assay (filter paper disc area diffusion); conditions: distance from edge of disc to growth; discs saturated with 100 mg/ml solution (antibiotic control discs 5-30 μg); 24 hours at 37° C.
Description: (§1) Two methods were used to examine whether an inhibitory effect from the zinc containing compounds was observable and if there was an inhibitory effect, whether the effect was bactericidal (bacteria-killing) or bacteriostatic (bacterial-inhibiting) in nature. In the first method, two Gram-positive bacteria strains (Staphlococcus aureus, Streptococcus pyogenes), two Gram-negative bacteria strains (Salmonella typhimerium, Eschrichia coli), and one common yeast strain (Candida albicans) were grown nutrient agar plates, except in the case of S. pyogenes which was grown on blood agar plates.
(§2) Zone inhibition assays were conducted with eighteen different samples in accordance with the methodology described by Maruzella, J. C. and Henry, P. A., J. Am. Pharm. Assoc. 47:894 (1958) for filter paper disc area diffusion. Sample solutions were prepared to approximate 100 mg/mL concentrations.
(§3) Organisms were grown for 24 hours at 37° C. on blood agar plates with the exception of Candida albicans which was grown in a standard methods agar (SMA) medium. Solutions of each sample were prepared using sterile DD water at a concentration of 100 mg/ml. Paper discs were saturated with solution from each sample and dried aseptically. […] Following drying of solution derived discs, all discs were placed on agar plates with each of the five different microorganisms.

[2] = tested on: Eschrichia coli; assay: as above; conditions: distance from edge of disc to bacterial growth; discs saturated with 100 mg/ml solution (antibiotic control discs 5-30 μg); 24 hours at 37° C.
Description: as §1, §2, §3

[3] = tested on: Salmonella typhimerium; assay: as above; conditions: distance from edge of disc to bacterial growth; discs saturated with 100 mg/ml solution (antibiotic control discs 5-30 μg); 24 hours at 37° C.
Description: as §1, §2, §3

[4] = tested on: Staphlococcus aureus; assay: as above; conditions: distance from edge of disc to bacterial growth; discs saturated with 100 mg/ml solution (antibiotic control discs 5-30 μg); 24 hours at 37° C.
Description: as §1, §2, §3

[5] = tested on: Streptococcus pyogenes; assay: as above; conditions: distance from edge of disc to bacterial growth; blood agar; discs saturated with 100 mg/ml solution (antibiotic control discs 5-30 μg); 24 hours at 37° C.
Description: as §1, §2, §3

[6] = tested on: Candida albicans; assay: Turbidity assay (TSB tubes, plated out); design: key: no-growth (NG) which corresponds with excellent inhibitory activity; partial growth (PG) which corresponds with good inhibitory activity; complete growth (CG) which corresponds with little or no inhibitory activity; conditions: TSB tube with 1.0 mL sample solution (100 mg/mL) and 100 μL 24-hour culture; after 24 hours plated, incubated 24 hours
Description: (§4) In the second method, turbidity assays were conducted. Tryptic soy broth (TSB) tubes were inoculated with 1.0 mL of sample solutions (100 mg/mL) and 50 μL of 24-hour cultures of each microbe. In the case of C. albicans, 100 μL of 24-hour culture was used. After 24 hours, an aliquot from each tube was plated out onto nutrient media and incubated for 24 hours. Following incubation, colonies on each plate were observed and characterized as one of three categories: no-growth (NG) which corresponds with excellent inhibitory activity, partial growth (PG) which corresponds with good inhibitory activity, complete growth (CG) which corresponds with little or no inhibitory activity.
(§5) S. pyongenes, could not be grown in the solution, so the turbidity assay was not conducted for that microorganism. When the data from both zone inhibition (Table 2) and turbidity (Table 3) assays are compared, an indication of the inhibition activity may be evident.

[7] = tested on: Eschrichia coli; assay: Turbidity assay (TSB tubes, plated out); design: key: no-growth (NG) which corresponds with excellent inhibitory activity; partial growth (PG) which corresponds with good inhibitory activity; complete growth (CG) which corresponds with little or no inhibitory activity; conditions: TSB tube with 1.0 mL sample solution (100 mg/mL) and 50 μL 24-hour culture; after 24 hours plated, incubated 24 hours
Description: as §4, §5

[8] = tested on: Staphlococcus aureus; assay: Turbidity assay (TSB tubes, plated out); design: key: no-growth (NG) which corresponds with excellent inhibitory activity; partial growth (PG) which corresponds with good inhibitory activity; complete growth (CG) which corresponds with little or no inhibitory activity; conditions: TSB tube with 1.0 mL sample solution (100 mg/mL) and 50 μL 24-hour culture; after 24 hours plated, incubated 24 hours
Description: as §4, §5

[Cl-].[Cl-].[Zn+2] [Sample 1, Zinc Chloride]
inhibitory zone, Candida albicans [1]: 4.5 millimeters
inhibitory zone, Eschrichia coli [2]: 4 millimeters
inhibitory zone, Salmonella typhimerium [3]: 3.5 millimeters
inhibitory zone, Staphlococcus aureus [4]: 6 millimeters
inhibitory zone, Streptococcus pyogenes [5]: 2.5 millimeters
colony growth category, Candida albicans [6]: PG
colony growth category, Eschrichia coli [7]: PG
colony growth category, Staphlococcus aureus [8]: PG

O=C([O-])CC(O)(CC(=O)[O-])C(=O)[O-].O=C([O-])CC(O)(CC(=O)[O-])C(=O)[O-].[Zn+2].[Zn+2].[Zn+2] [Sample 2, Zinc Citrate]
inhibitory zone, Candida albicans [1]: no activity
inhibitory zone, Eschrichia coli [2]: 1.5 millimeters
inhibitory zone, Staphlococcus aureus [4]: 1 millimeters
inhibitory zone, Streptococcus pyogenes [5]: 3.5 millimeters

CC(=O)[O-].CC(=O)[O-].[Zn+2] [Sample 3, Zinc Acetate]
inhibitory zone, Candida albicans [1]: 2 millimeters
inhibitory zone, Eschrichia coli [2]: 3 millimeters
inhibitory zone, Salmonella typhimerium [3]: 3 millimeters
inhibitory zone, Staphlococcus aureus [4]: 2 millimeters
inhibitory zone, Streptococcus pyogenes [5]: 3.5 millimeters

O=S(=O)([O-])[O-].[Zn+2] [Sample 4, Zinc Sulfate]
inhibitory zone, Candida albicans [1]: 2 millimeters
inhibitory zone, Eschrichia coli [2]: 3.5 millimeters
inhibitory zone, Salmonella typhimerium [3]: 3 millimeters
inhibitory zone, Staphlococcus aureus [4]: 3.7 millimeters
inhibitory zone, Streptococcus pyogenes [5]: 2 millimeters
colony growth category, Candida albicans [6]: CG
colony growth category, Eschrichia coli [7]: CG
colony growth category, Staphlococcus aureus [8]: CG

NCC(=O)[O-].NCC(=O)[O-].[Zn+2] [Sample 5, Zinc Bis-Glycinate]
inhibitory zone, Candida albicans [1]: 0.5 millimeters
inhibitory zone, Eschrichia coli [2]: 3.5 millimeters
inhibitory zone, Salmonella typhimerium [3]: 3.5 millimeters
inhibitory zone, Staphlococcus aureus [4]: 3.5 millimeters
inhibitory zone, Streptococcus pyogenes [5]: 4 millimeters
colony growth category, Candida albicans [6]: NG
colony growth category, Eschrichia coli [7]: NG
colony growth category, Staphlococcus aureus [8]: PG (1)

O=C([O-])CCCCC1CCSS1.O=C([O-])CCCCC1CCSS1.[Zn+2] (stereo not drawn) [Sample 6, Zinc Lipoate]
inhibitory zone, Candida albicans [1]: no activity
inhibitory zone, Eschrichia coli [2]: .5 millimeters
inhibitory zone, Salmonella typhimerium [3]: 2 millimeters
inhibitory zone, Staphlococcus aureus [4]: 1.5 millimeters
inhibitory zone, Streptococcus pyogenes [5]: 1 millimeters

NC[C@@H]1O[C@H](O[C@H]2[C@@H](O)[C@H](O[C@@H]3[C@@H](O)[C@H](N)C[C@H](N)[C@H]3O[C@H]3O[C@H](CN)[C@@H](O)[C@H](O)[C@H]3N)O[C@@H]2CO)[C@H](N)[C@@H](O)[C@@H]1O [Sample 8, Neomycin]
inhibitory zone, Candida albicans [1]: no activity
inhibitory zone, Eschrichia coli [2]: 3 millimeters
inhibitory zone, Salmonella typhimerium [3]: 6 millimeters
inhibitory zone, Staphlococcus aureus [4]: 6 millimeters
inhibitory zone, Streptococcus pyogenes [5]: 3 millimeters

O=C(O)c1cn(C2CC2)c2cc(N3CCNCC3)c(F)cc2c1=O [Sample 9, Ciproflaxicin]
inhibitory zone, Candida albicans [1]: no activity
inhibitory zone, Eschrichia coli [2]: 5 millimeters
inhibitory zone, Salmonella typhimerium [3]: 10 millimeters
inhibitory zone, Staphlococcus aureus [4]: 8.5 millimeters
inhibitory zone, Streptococcus pyogenes [5]: 3 millimeters

CC1(C)S[C@@H]2[C@H](NC(=O)[C@H](N)c3ccc(O)cc3)C(=O)N2[C@H]1C(=O)O [Sample 10, Amoxicillin]
inhibitory zone, Candida albicans [1]: no activity
inhibitory zone, Eschrichia coli [2]: 3.5 millimeters
inhibitory zone, Salmonella typhimerium [3]: 8 millimeters
inhibitory zone, Staphlococcus aureus [4]: 7.5 millimeters

CN(C)[C@@H]1C(O)=C(C(N)=O)C(=O)[C@@]2(O)C(O)=C3C(=O)c4c(O)cccc4[C@@](C)(O)[C@H]3C[C@@H]12 [Sample 11, Tetracycline]
inhibitory zone, Candida albicans [1]: no activity
inhibitory zone, Eschrichia coli [2]: 5.5 millimeters
inhibitory zone, Salmonella typhimerium [3]: 7 millimeters
inhibitory zone, Staphlococcus aureus [4]: 7.5 millimeters
inhibitory zone, Streptococcus pyogenes [5]: no activity

Cc1cc(NS(=O)(=O)c2ccc(N)cc2)no1 [Sample 12, Sulfamethoxazole]
inhibitory zone, Candida albicans [1]: no activity
inhibitory zone, Eschrichia coli [2]: 3 millimeters
inhibitory zone, Salmonella typhimerium [3]: 4 millimeters
inhibitory zone, Staphlococcus aureus [4]: 3.5 millimeters
inhibitory zone, Streptococcus pyogenes [5]: 7.5 millimeters
colony growth category, Candida albicans [6]: CG
colony growth category, Eschrichia coli [7]: CG
colony growth category, Staphlococcus aureus [8]: CG

CN[C@H](CC(C)C)C(=O)N[C@H]1C(=O)N[C@@H](CC(N)=O)C(=O)N[C@H]2C(=O)N[C@H]3C(=O)N[C@H](C(=O)N[C@H](C(=O)O)c4cc(O)cc(O)c4-c4cc3ccc4O)[C@H](O)c3ccc(c(Cl)c3)Oc3cc2cc(c3O[C@@H]2O[C@H](CO)[C@@H](O)[C@H](O)[C@H]2O[C@H]2C[C@](C)(N)[C@H](O)[C@H](C)O2)Oc2ccc(cc2Cl)[C@H]1O [Sample 13, Vancomycin]
inhibitory zone, Candida albicans [1]: no activity
inhibitory zone, Eschrichia coli [2]: no activity
inhibitory zone, Salmonella typhimerium [3]: no activity
inhibitory zone, Staphlococcus aureus [4]: 5 millimeters
inhibitory zone, Streptococcus pyogenes [5]: 5 millimeters

[Cl-].[Na+] [Sample 14, Sodium Chloride]
inhibitory zone, Candida albicans [1]: no activity
inhibitory zone, Eschrichia coli [2]: no activity
inhibitory zone, Salmonella typhimerium [3]: no activity
inhibitory zone, Staphlococcus aureus [4]: no activity
inhibitory zone, Streptococcus pyogenes [5]: no activity

CC(=O)[O-].[Na+] [Sample 15, Sodium Acetate]
inhibitory zone, Candida albicans [1]: no activity
inhibitory zone, Eschrichia coli [2]: no activity
inhibitory zone, Salmonella typhimerium [3]: no activity
inhibitory zone, Staphlococcus aureus [4]: no activity
inhibitory zone, Streptococcus pyogenes [5]: no activity
colony growth category, Candida albicans [6]: CG
colony growth category, Eschrichia coli [7]: NG
colony growth category, Staphlococcus aureus [8]: NG

NCC(=O)[O-].[Na+] [Sample 16, Sodium Glycinate]
inhibitory zone, Candida albicans [1]: no activity
inhibitory zone, Eschrichia coli [2]: no activity
inhibitory zone, Salmonella typhimerium [3]: no activity
inhibitory zone, Staphlococcus aureus [4]: no activity
inhibitory zone, Streptococcus pyogenes [5]: no activity

O=S(=O)([O-])[O-].[Na+].[Na+] [Sample 17, Sodium Sulfate]
inhibitory zone, Candida albicans [1]: no activity
inhibitory zone, Eschrichia coli [2]: no activity
inhibitory zone, Salmonella typhimerium [3]: no activity
inhibitory zone, Staphlococcus aureus [4]: no activity
inhibitory zone, Streptococcus pyogenes [5]: no activity

O=C([O-])CC(O)(CC(=O)[O-])C(=O)[O-].[Na+].[Na+].[Na+] [Sample 18, Sodium Citrate]
inhibitory zone, Candida albicans [1]: no activity
inhibitory zone, Eschrichia coli [2]: no activity
inhibitory zone, Staphlococcus aureus [4]: no activity
inhibitory zone, Streptococcus pyogenes [5]: no activity

Zinc Gluconate [Sample 7]
inhibitory zone, Candida albicans [1]: no activity
inhibitory zone, Eschrichia coli [2]: 2 millimeters
inhibitory zone, Salmonella typhimerium [3]: 2.75 millimeters
inhibitory zone, Staphlococcus aureus [4]: 3 millimeters
inhibitory zone, Streptococcus pyogenes [5]: 5 millimeters

Reference: US7582418B2, “Antimicrobial chelates” (Albion Laboratories, Inc., priority 2004, dated 2009)
